Structures can show the parent of a compound that is named as a salt.
Tests used:
[1] = tested on: antibody to L-hyoscyamine (antiserum); type: binding, New Zealand white rabbit
mice = settings: mouse, in vivo; cited from earlier work
patients = settings: human, in vivo; cited from earlier work
[2] = in vivo; cited from earlier work
[3] = tested on: antibody of Virtanen radioimmunoassay; settings: cited from earlier work
spinal cord = settings: dog, in vivo; cited from earlier work
[4] = tested on: antibody of Wurzeburger radioimmunoassay; settings: cited from earlier work
frogs = settings: in vivo; cited from earlier work
[5] = in vivo; cited from earlier work; remark: listed apart in the source
[6] = tested on: peripheral parasympathetic nervous system; settings: in vivo; cited from earlier work
children (flush) = settings: in vivo, po; cited from earlier work
human eyes = settings: in vivo; cited from earlier work

For `CN1[C@@H]2CC[C@H]1C[C@@H](OC(=O)C(CO)c1ccccc1)C2` (mixture of isomers) [atropine, D,L-hyoscyamine], the “% Cross-reactivity” value [1] was 30%, the “Specificity (cross-reactivity), Verma” value [1] was 37% and the “cross reaction / cross-reactivity with antibody of the invention” value [1] was “about 37%”. For the same compound, the “recognition by / cross-reaction with the antibody” value (from here on “recognition by / cross-reaction”) [1] was “recognized by the antibody”, the narcotization (mice) was “became narcotized” and the complications (patients) was “tachycardia, lethal arrhythmias and/or extension of the myocardial infarction”. The cycloplegic effect [2] was “exert a cycloplegic effect”, the effect on thermoregulation [2] was “hinders thermoregulation” and the “Specificity (cross-reactivity), Virtanen” value [3] was 100%. For the same compound, the “effect on excitability of the spinal cord” value (spinal cord) was “increase the excitability of the spinal cord” and the “Specificity (percentage of cross reactivity), Wurzeburger” value [4] was 100%.
With `O=C(O)C(CO)c1ccccc1` (racemic) [Tropic Acid, dl-tropic acid] the “% Cross-reactivity” value [1] was 0% and the “recognition by / cross-reaction” value [1] was “did not cross-react with the antibody”.
With `CN1[C@@H]2CC[C@H]1C[C@@H](OC(=O)C(CO)c1ccccc1)C2` (stereo partly drawn) [atropine sulfate] the “serum level of 1-hyoscyamine after 3 hours” value (after 3 hours) was “approximately 50%” and the serum level course (in vivo) was “steady decline curve after 40 minutes”.
For `CN1[C@@H]2CC[C@H]1C[C@@H](OC(=O)[C@@H](CO)c1ccccc1)C2` [D-hyoscyamine], the “cross reaction / cross-reactivity with antibody of the invention” value [1] is given as “about 37%”, the “effect on spinal cord” value (frogs) is given as “an excitant to the spinal cord” and the “rate of destruction compared with L-form” value [5] is given as “destroyed more slowly than the L-form”. The “peripheral activity” value [6] was “peripherally inactive” and the “quantity required for flush, as multiple” value (children (flush)) was 20-40 times.
With `CN1[C@@H]2C[C@@H](OC(=O)[C@H](CO)c3ccccc3)C[C@H]1[C@@H]1O[C@@H]12` [Scopolamine, 1-scopolamine-HCl] the “% Cross-reactivity” value [1] was 0%.
For `CN1[C@@H]2CC[C@H]1C[C@@H](OC(=O)[C@H](CO)c1ccccc1)C2` [L-hyoscyamine sulphate], the “action on human eyes” value (human eyes) is listed as 0.25% solution, can replace a 1% solution of atropine sulphate.
With `CN1[C@@H]2CC[C@H]1C[C@@H](OC(=O)C(O)c1ccccc1)C2` (mixture of isomers) [Homatropine, dl-homatropine-HBr] the “recognition by / cross-reaction” value [1] was “recognized by the antibody”.
For `CN1[C@@H]2CC[C@H]1C[C@@H](OC(=O)[C@H](CO)c1ccccc1)C2` [L-hyoscyamine], the “% Cross-reactivity” value [1] is given as 100%, the “Specificity (cross-reactivity), Verma” value [1] is given as 100% and the narcotization (mice) is given as “not affected”. The “peripheral activity” value [6] was “the most potent parasympathetic antispasmodic known”, the “Specificity (cross-reactivity), Virtanen” value [3] was 100% and the “effect on excitability of the spinal cord” value (spinal cord) was “no effect”. The “Specificity (percentage of cross reactivity), Wurzeburger” value [4] was 2.4% and the “quantity needed for flush” value (children (flush)) was “Less quantities of L-hyoscyamine were needed than atropine”.
In the case of `CN1[C@@H]2CC[C@H]1C[C@@H](O)C2` [Tropine, tropine], the “% Cross-reactivity” value [1] is reported as 0% and the “recognition by / cross-reaction” value [1] is reported as “did not cross-react with the antibody”.
